Test results taken from patent US6309882A, “Antisense inhibition of replication protein a p70 subunit” (ISIS Pharmaceuticals, Inc., priority 1999, dated 2001).

Experiments:
[1] = tested on: RPA70 mRNA; assay: RPA70 mRNA expression in A549 cells, Northern blot; assay type: cell-based, human
Method: (§1) Antisense treatments were performed with phosphorothioate oligodeoxynucleotides. Cells were cultured in 6-well plates to 60-80% confluency for use in oligonucleotide treatments. Cells were washed once with OPTI-MEM™ (Life Technologies), pre-warmed to 37° C. Transfections were carried out in 1 ml OPTI-MEM™ containing 3 μg LIPOFECTIN™ (Life Technologies) per ml of Opti-MEM™ per 100 nM added oligonucleotide. OPTI-MEM™ containing the appropriate amount of LIPOFECTIN™ was added to the cells followed by addition of oligonucleotides from 1000×stocks. (For dose-response studies oligonucleotides were added from 20×stocks.) Cells were incubated for 5 h at 37° C. Following treatment, medium was removed and replaced with pre-warmed replete media (Bennett, C. F., et al., Mol. Pharm., 1992, 41, 1023-1033; Monia, B. P., et al., Nature Medicine, 1993, 2, 668-674).
(§2) Target mRNA levels were assessed by Northern blotting with target specific random primed [α-^32 P]dCTP-labeled cDNA probes, as described below. cDNAs for probes were obtained by specific RT-PCR of cellular RNAs.
(§3) For determination of mRNA levels by Northern blot, total RNA was prepared from cells 24 h after oligonucleotide addition using a SDS-lysis method (Peppel, K. and Baglioni, C., Biotechniques, 1990, 9, 711-713). Northern analysis was performed as described (Brown, T. and Mackey, K., in Current protocols in Molecular Biology (Ausubel, F. ed.), 1987, Vol. 1, pp. 4.9.1-4.912, Greene publishing, New York). To determine RPA70 mRNA expression RNA blots were probed using a random primed [α-^32 P]dCTP-labeled cDNA probe corresponding to a 562 nucleotide sequence (1519-2081) from human RPA70 (Erdile, L. F., et al., J. Biol. Chem., 1991, 266, 12090-12098). After transfer, membranes were prehybridized with Quik-Hyb solution (Stratagene, La Jolla, Calif.) for 1 h at 68° C. and then hybridized 1-4 hours with 12.5×10^6 cpm of cDNA probe and 2 μg salmon sperm DNA carrier in a total of 10 ml of hybridization solution. Following hybridization, membranes were washed twice at room temperature for 15 min in 2×SSC/0.1% SDS and then once at 60° C. for 30 min in 0.1×SSC/0.1% SDS.
RNA on the blots was quantified by phosphorimaging on a Fuji FLA-2000. RPA70 mRNA levels are normalized to the level of RPA70 mRNA measured in cells treated with 400 nM control 20N-mer phosphorothioate oligonucleotide and expressed as percentage of control treated levels. Glyceraldehyde phosphate dehydrogenase (GAPDH) mRNA levels were probed using a random primed GAPDH cDNA generated by RT-PCR with human GAPDH primers (Stratagene, Inc., La Jolla, Calif.).
To assess the ability of these oligonucleotides to inhibit RPA70 expression, A549 cells were treated with oligonucleotide at 400 nM in the presence of LIPOFECTIN™, and the level of RPA70 mRNA was measured by Northern blot analysis (see Table 3). Most oligonucleotides reduced RPA70 mRNA levels by 50% to 94%. […] This oligonucleotide targets a non-variant region located in the 3'-UTR of RPA70 mRNA and is not variance-specific.

[2] = tested on: RPA70 mRNA; assay: RPA70 mRNA expression in Mia Paca II cells, dose response, Northern blot; assay type: cell-based, human; conditions: for % mRNA EXPRESSION / % mRNA INHIBITION: Mia Paca II
Method: as §1, §2, §3
RNA on the blots was quantified by phosphorimaging on a Fuji FLA-2000. RPA70 mRNA levels are normalized to the level of RPA70 mRNA measured in cells treated with 400 nM control 20N-mer phosphorothioate oligonucleotide and expressed as percentage of control treated levels. Glyceraldehyde phosphate dehydrogenase (GAPDH) mRNA levels were probed using a random primed GAPDH cDNA generated by RT-PCR with human GAPDH primers (Stratagene, Inc., La Jolla, Calif.). […]

[3] = tested on: HeLa cells; assay: HeLa cell survival, Sulforhodamine B staining; assay type: cell-based, human; conditions: for % Cell Killing / % Cell Survival: SRB, three days
Text: Cells were transfected with matched, mismatched, or non-allele specific anti-RPA70 (ISIS 12790) oligonucleotides as described above. Following transfection, the cells were allowed to recover either three days (HeLa cells) or 6 days (Mia Paca II cells). The number of cells remaining attached to the tissue culture dish was quantified by Sulforhodamine B (SRB) staining (FluoReporter Colorimetric Cell Protein Assay Kit, Molecular probes).
To determine the effect of variance-specific antisense oligonucleotides on cell survival, cells were treated with oligonucleotides and cell survival measured by Sulforhodamine B staining. […] At the maximum concentration of ISIS 12781, 400 nM, there was an 84% reduction of surviving cells. […] After treatment with 400 nM oligonucleotide, the amount of cells remaining with VAR 13085 was 3.1-fold higher than with ISIS 12781. […] The IC50 for the decrease was less than 100 nM. The IC50s for inhibition of HeLa cell survival correlated with the IC50s for RPA70 mRNA suppression by both ISIS 12781 and ISIS 12790 oligonucleotides.

[4] = tested on: Mia Paca II tumors; assay: Mia Paca II tumors in NMRI nu/nu mice; assay type: in vivo
Method: Delivery of oligonucleotide was continuous for 14 days. The dosage of oligonucleotide was 10 mg/kg/day. Each sample set contained three mice. Tumor volume was measured regularly and after two weeks, the tumors were taken out and weighed.

[5] = 400 nM oligonucleotide with LIPOFECTIN, RNA 24 h after addition

Substance: ISIS 12790: phosphorothioate oligodeoxynucleotide TGGTCTGCAGTTAGGGTCAG, SEQ ID NO 15, 3'-UTR 2230-2249, non-allele specific (DNA, all phosphorothioate, methylation of C not given here)
- reduction in RPA70 mRNA levels ([1]; 400 nM): 94%
- % mRNA EXPRESSION [1, 5]: 6%
- % mRNA INHIBITION [1, 5]: 94%
- effect on RPA70 mRNA level ([2]; Mia Paca II cells (C allele)): dose-dependent decrease in RPA70 mRNA levels
- % mRNA EXPRESSION ([2]; 50 nM): 43%
- % mRNA INHIBITION ([2]; 50 nM): 57%
- % mRNA EXPRESSION ([2]; 100 nM): 18%
- % mRNA INHIBITION ([2]; 100 nM): 82%
- % mRNA EXPRESSION ([2]; 200 nM): 14%
- % mRNA INHIBITION ([2]; 200 nM): 86%
- % mRNA EXPRESSION ([2]; 400 nM): 20%
- % mRNA INHIBITION ([2]; 400 nM): 80%
- effect on cell survival ([3]; HeLa cells): dose-dependent reduction in the number of surviving cells
- IC50 ([3]; HeLa cells, read-out: IC50 for decrease in cell survival): < 100 nM
- % Cell Killing ([3]; HeLa, 50 nM): 77%
- % Cell Survival ([3]; HeLa, 50 nM): 23%
- % Cell Killing ([3]; HeLa, 100 nM): 66%
- % Cell Survival ([3]; HeLa, 100 nM): 34%
- % Cell Killing ([3]; HeLa, 200 nM): 89%
- % Cell Survival ([3]; HeLa, 200 nM): 11%
- reduction of surviving cells ([3]; HeLa, 400 nM): 90%
- % Cell Killing ([3]; HeLa, 400 nM): 89%
- % Cell Survival ([3]; HeLa, 400 nM): 11%
- effect on tumor progression ([4]; 10 mg/kg/day for 14 days): delayed tumor progression over the two week period compared to a saline control
- average final weight of the tumors ([4]; after two weeks, 10 mg/kg/day, saline control 297 mg): 161 mg
- Tumor volume ([4]; day 0, 10 mg/kg/day osmotic minipump): 134 mm^3
- Tumor volume ([4]; day 1, 10 mg/kg/day osmotic minipump): 186 mm^3
- Tumor volume ([4]; day 2, 10 mg/kg/day osmotic minipump): 220 mm^3
- Tumor volume ([4]; day 6, 10 mg/kg/day osmotic minipump): 252 mm^3
- Tumor volume ([4]; day 7, 10 mg/kg/day osmotic minipump): 290 mm^3
- Tumor volume ([4]; day 9, 10 mg/kg/day osmotic minipump): 370 mm^3
- Tumor volume ([4]; day 13, 10 mg/kg/day osmotic minipump): 358 mm^3
- Tumor volume ([4]; day 14, 10 mg/kg/day osmotic minipump): 331 mm^3
- inhibition of tumor growth ([4]; two week period, compared to saline control): approximately 40%
